We go through 1 sequence from article PMC6737244, “Cathelicidin Peptides Restrict Bacterial Growth via Membrane Perturbation and Induction of Reactive Oxygen Species” (mBio, 2019).

Ends that are not written are not given here.

Assay [1] concerns Enterobacter cloacae OC4080. In kind it is cell-based. The method, then:
(§1) MICs were determined by using the broth microdilution method based on the general recommendations of the Clinical and Laboratory Standards Institute (CLSI). Bacteria were grown in CAMHB overnight. They were then diluted into fresh medium the following morning and grown to early log phase. The cultures were then diluted to approximately 5 × 10^5 CFU ml^−1, and 100 μl was added to sterile 96-well polypropylene microtiter plates (Corning, NY, USA) preloaded with twofold dilutions of antimicrobial peptides. […] All MIC assays were determined from at least three independent assays.

The test system of assay [2] is Enterobacter cloacae OC4092. In kind it is cell-based. As for the experimental part: as §1
The test system of assay [3] is Escherichia coli ATCC 25922. The class given is cell-based. The method, then: as §1
In assay [4] the test system is Escherichia coli ATCC 35218. In kind it is cell-based. As for the experimental part:
as §1

The next assay deals with Escherichia coli MC4100a. The class given is cell-based. The method, then: as §1
The test system of a further assay is Escherichia coli OC4075. In kind it is cell-based. As for the experimental part: as §1
The test system of another assay is Escherichia coli UTI89. In kind it is cell-based. As for the experimental part: as §1
The test system of assay [5] is Klebsiella pneumoniae 262 (NDM1+). In kind it is cell-based. The method, then:
as §1

The subject of assay [6] is Klebsiella pneumoniae 88 (NDM1+). In kind it is cell-based. As for the experimental part:
as §1

The test system of assay [7] is Klebsiella pneumoniae ATCC 700603. In kind it is cell-based. The method, then: as §1
The subject of another assay is Klebsiella pneumoniae C2. The class given is cell-based. The method, then: as §1
The test system of assay [8] is Klebsiella pneumoniae OC4110. In kind it is cell-based. The method, then:
as §1

Assay [9] relates to Klebsiella pneumoniae OC8893. The class given is cell-based. As for the experimental part:
as §1

For assay [10], the system named is Pseudomonas aeruginosa ATCC 27853. The class given is cell-based. The method, then:
as §1

For assay [11], the system named is Pseudomonas aeruginosa OC4083. The class given is cell-based. As for the experimental part:
as §1

Assay [12] has as its system Pseudomonas aeruginosa PAO1. In kind it is cell-based. The method, then:
as §1

The next assay relates to Gram-positive bacteria. The conditions noted are these: cited from earlier work. The source says: The human cathelicidin LL-37 has important roles in modulating inflammatory responses. […] Perhaps because they are released in response to bacterial infection and tissue injuries, LL-37 and other cathelicidins can promote wound healing and reduce fibrosis ([8][–][10]). All of these desirable activities have generated significant interest in developing cathelicidins to treat bacterial infection and injuries, however, c ...

Turning to “GRFKRFRKKLKKLFKKLSPVIPLLHLG [BMAP-27B, reference compound]”, the MIC (in [1]; in assay [2]; in [3]; in assay [4]; with Escherichia coli MC4100a; against Escherichia coli OC4075) was 4 µM each time. Moreover, the minimal inhibitory concentration (MIC) came out at 4 µM in the assay on Escherichia coli UTI89; 4 µM in assay [5]; 4 µM in assay [6]; 4 µM in assay [7]; 4 µM in the assay on Klebsiella pneumoniae C2; 8 µM in assay [8]. The minimum inhibitory concentration (MIC) in assay [9] worked out at 8 µM; in assay [10], 4 µM; in assay [11], 4 µM; in assay [12], 4 µM. Besides, in the assay on Gram-positive bacteria, the “Fold-higher concentration needed to reach the MICs for Gram-positive bacteria” value is reported as “ca. 10 fold”.

By MIC is commonly meant the lowest concentration that inhibits growth of the organism.
